Experimental data from patent publication US12077503B2, “Substituted cyclic amides and their use as herbicides” (FMC CORPORATION, priority 2015, dated 2024).

Assays:
Type in all cases: in vivo
[1] = test system: giant foxtail (Setaria faberii); assay: Test A preemergence; settings: Setaria faberi, pre-emergence, 240 h, 0 to 100 scale (0 no effect, 100 complete control), read-out: Plant response rating, Foxtail, Giant
How it was run: (§1)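 Greenhouse, ~10 d after spray; visual injury vs untreated controls, 0 = no effect, 100 = complete control. Preemergence: directed soil spray over planted seeds. Postemergence: plants 2–10 cm, 1–2 leaf stage. Loam/sand blend. Compound in non-phytotoxic solvent with surfactant.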

Kochia (Kochia scoparia) = assay: Test A preemergence; settings: Bassia scoparia, pre-emergence, 240 h, 0 to 100 scale (0 no effect, 100 complete control), read-out: Plant response rating, Kochia
How it was run: as §1

[2] = test system: ragweed (common ragweed, Ambrosia elatior); assay: Test A preemergence; settings: Ambrosia artemisiifolia, pre-emergence, 240 h, 0 to 100 scale (0 no effect, 100 complete control), read-out: Plant response rating, Ragweed
How it was run: as §1

[3] = test system: barnyardgrass (Echinochloa crus-galli); assay: Test A preemergence; settings: Echinochloa crus-galli, pre-emergence, 240 h, 0 to 100 scale (0 no effect, 100 complete control), read-out: Plant response rating, Barnyardgrass
How it was run: as §1

[4] = test system: ryegrass, Italian (Italian ryegrass, Lolium multiflorum); assay: Test A preemergence; settings: Lolium multiflorum, pre-emergence, 240 h, 0 to 100 scale (0 no effect, 100 complete control), read-out: Plant response rating, Ryegrass, Italian
How it was run: as §1

[5] = test system: pigweed (Amaranthus retroflexus); assay: Test A preemergence; settings: Amaranthus retroflexus, pre-emergence, 240 h, 0 to 100 scale (0 no effect, 100 complete control), read-out: Plant response rating, Pigweed
[6] = test system: wheat (Triticum aestivum); assay: Test A postemergence; settings: Triticum aestivum, post-emergence, 240 h, Postemergence
How it was run: as §1

corn (Zea mays) = assay: Test A postemergence; settings: Zea mays, post-emergence, 240 h, Postemergence
How it was run: as §1

[7] = test system: giant foxtail (Setaria faberii); assay: Test A postemergence; settings: Setaria faberi, post-emergence, 240 h, Postemergence
How it was run: as §1

[8] = test system: ragweed (common ragweed, Ambrosia elatior); assay: Test A postemergence; settings: Ambrosia artemisiifolia, post-emergence, 240 h, Postemergence
How it was run: as §1

[9] = test system: barnyardgrass (Echinochloa crus-galli); assay: Test A postemergence; settings: Echinochloa crus-galli, post-emergence, 240 h, Postemergence
How it was run: as §1

[10] = test system: ryegrass, Italian (Italian ryegrass, Lolium multiflorum); assay: Test A postemergence; settings: Lolium multiflorum, post-emergence, 240 h, Postemergence
How it was run: as §1

[11] = test system: pigweed (Amaranthus retroflexus); assay: Test A postemergence; settings: Amaranthus retroflexus, post-emergence, 240 h, Postemergence
How it was run: as §1

[12] = test system: Galium (catchweed bedstraw, Galium aparine); assay: Test A postemergence; settings: Galium, post-emergence, 240 h, Postemergence
How it was run: as §1

Cc1ccc([C@H]2CN(C)C(=O)[C@@H]2C(=O)Nc2ccc(F)c(F)c2F)cc1 [Compound 1378]
90%: pest or weed control at 500 g/ha ([1]; 500 g ai/ha, preemergence) | pest or weed control at 125 g/ha ([1]; Preemergence, 125 g ai/ha) | pest or weed control at 500 g/ha (Kochia (Kochia scoparia); 500 g ai/ha, preemergence) | pest or weed control at 500 g/ha ([2]; 500 g ai/ha, preemergence) | pest or weed control at 500 g/ha ([3]; 500 g ai/ha, preemergence) | pest or weed control at 125 g/ha ([3]; Preemergence, 125 g ai/ha) | pest or weed control at 500 g/ha ([4]; 500 g ai/ha, preemergence) | pest or weed control at 500 g/ha ([7]; 500 g ai/ha, visual injury, 0 to 100 scale (0 no effect, 100 complete control), approx. 10 d, read-out: Plant response rating, Foxtail, Giant)
80%: pest or weed control at 125 g/ha (Kochia (Kochia scoparia); Preemergence, 125 g ai/ha) | pest or weed control at 125 g/ha ([4]; Preemergence, 125 g ai/ha) | plant injury at 125 g/ha (corn (Zea mays); 125 g ai/ha, visual rating about 10 d after treatment, read-out: Corn plant response rating (0 to 100 scale)) | Corn plant response rating (crop injury, 0 = no effect, 100 = complete kill) at 500 g/ha (corn (Zea mays); 500 g ai/ha, visual injury, 0 to 100 scale (0 no effect, 100 complete control), approx. 10 d) | pest or weed control at 125 g/ha ([7]; 125 g ai/ha, visual rating about 10 d after treatment, read-out: Foxtail, Giant plant response rating (0 to 100 scale)) | pest or weed control at 125 g/ha ([9]; 125 g ai/ha, visual rating about 10 d after treatment, read-out: Barnyardgrass plant response rating (0 to 100 scale, 0 no effect, 100 complete control)) | pest or weed control at 500 g/ha ([9]; 500 g ai/ha, visual injury, 0 to 100 scale (0 no effect, 100 complete control), approx. 10 d, read-out: Plant response rating, Barnyardgrass)
30%: pest or weed control at 125 g/ha ([11]; 125 g ai/ha, visual rating about 10 d after treatment, read-out: Pigweed plant response rating (0 to 100 scale))
40%: pest or weed control at 125 g/ha ([8]; 125 g ai/ha, visual rating about 10 d after treatment, read-out: Ragweed plant response rating (0 to 100 scale)) | pest or weed control at 125 g/ha ([10]; 125 g ai/ha, visual rating about 10 d after treatment, read-out: Ryegrass, Italian plant response rating (0 to 100 scale))
60%: plant injury at 125 g/ha ([6]; 125 g ai/ha, visual rating about 10 d after treatment, read-out: Wheat plant response rating (0 to 100 scale)) | pest or weed control at 500 g/ha ([10]; 500 g ai/ha, visual injury, 0 to 100 scale (0 no effect, 100 complete control), approx. 10 d, read-out: Plant response rating, Ryegrass, Italian) | pest or weed control at 125 g/ha ([12]; 125 g ai/ha, visual rating about 10 d after treatment, read-out: Galium plant response rating (0 to 100 scale))
50%: pest or weed control at 125 g/ha ([2]; Preemergence, 125 g ai/ha)
70%: pest or weed control at 500 g/ha ([5]; 500 g ai/ha, preemergence) | pest or weed control at 125 g/ha ([5]; Preemergence, 125 g ai/ha) | plant injury at 500 g/ha ([6]; 500 g ai/ha, visual injury, 0 to 100 scale (0 no effect, 100 complete control), approx. 10 d, read-out: Plant response rating, Wheat) | pest or weed control at 500 g/ha ([8]; 500 g ai/ha, visual injury, 0 to 100 scale (0 no effect, 100 complete control), approx. 10 d, read-out: Plant response rating, Ragweed) | pest or weed control at 500 g/ha ([11]; 500 g ai/ha, visual injury, 0 to 100 scale (0 no effect, 100 complete control), approx. 10 d, read-out: Plant response rating, Pigweed) | pest or weed control at 500 g/ha ([12]; 500 g ai/ha, visual injury, 0 to 100 scale (0 no effect, 100 complete control), approx. 10 d, read-out: Plant response rating, Galium)
